Experimental data published in the supplement of paper PMC11451515.

Test system: SEM cells
Assay: cell viability relative to DMSO control; higher = less cytotoxic
Conditions: 48 h
Procedure, shortened: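 Cells were incubated for 48 h at 37°C before CellTiter-Glo One luminescence was read. The cells were NOMO1 or SEM (500 cells/well) or P12-Ichikawa (1000 cells/well) leukemia cells, adapted for at least four passages in each medium and seeded in 1536-well plates (5 μl). Dosing used library compounds in DMSO applied by pin over 11 threefold points, 47 μM to 0.79 nM. Viability is the per-plate percentage of DMSO wells, with cell-free wells as background.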

[1] = HPLM + 10% dialyzed FBS, 0.000781 µM
[2] = HPLM + 10% dialyzed FBS, 0.00234 µM
[3] = HPLM + 10% dialyzed FBS, 0.00702 µM
[4] = HPLM + 10% dialyzed FBS, 0.0211 µM
[5] = HPLM + 10% dialyzed FBS, 0.0632 µM
[6] = HPLM + 10% dialyzed FBS, 0.19 µM
[7] = HPLM + 10% dialyzed FBS, 0.569 µM
[8] = HPLM + 10% dialyzed FBS, 1.71 µM
[9] = HPLM + 10% dialyzed FBS, 5.12 µM
[10] = HPLM + 10% dialyzed FBS, 15.4 µM
[11] = HPLM + 10% dialyzed FBS, 46.1 µM
[12] = RPMI 5 mM glucose + 10% dialyzed FBS, 0.000781 µM
[13] = RPMI 5 mM glucose + 10% dialyzed FBS, 0.00234 µM
[14] = RPMI 5 mM glucose + 10% dialyzed FBS, 0.00702 µM
[15] = RPMI 5 mM glucose + 10% dialyzed FBS, 0.0211 µM
[16] = RPMI 5 mM glucose + 10% dialyzed FBS, 0.0632 µM
[17] = RPMI 5 mM glucose + 10% dialyzed FBS, 0.19 µM
[18] = RPMI 5 mM glucose + 10% dialyzed FBS, 0.569 µM
[19] = RPMI 5 mM glucose + 10% dialyzed FBS, 1.71 µM
[20] = RPMI 5 mM glucose + 10% dialyzed FBS, 5.12 µM
[21] = RPMI 5 mM glucose + 10% dialyzed FBS, 15.4 µM
[22] = RPMI 5 mM glucose + 10% dialyzed FBS, 46.1 µM
[23] = RPMI 5 mM glucose + 10% FBS, 0.000781 µM
[24] = RPMI 5 mM glucose + 10% FBS, 0.00234 µM
[25] = RPMI 5 mM glucose + 10% FBS, 0.00702 µM
[26] = RPMI 5 mM glucose + 10% FBS, 0.0211 µM
[27] = RPMI 5 mM glucose + 10% FBS, 0.0632 µM
[28] = RPMI 5 mM glucose + 10% FBS, 0.19 µM
[29] = RPMI 5 mM glucose + 10% FBS, 0.569 µM
[30] = RPMI 5 mM glucose + 10% FBS, 1.71 µM
[31] = RPMI 5 mM glucose + 10% FBS, 5.12 µM
[32] = RPMI 5 mM glucose + 10% FBS, 15.4 µM
[33] = RPMI 5 mM glucose + 10% FBS, 46.1 µM

| Structure (SMILES) | cell viability [1] [%] | cell viability [2] [%] | cell viability [3] [%] | cell viability [4] [%] | cell viability [5] [%] | cell viability [6] [%] | cell viability [7] [%] | cell viability [8] [%] | cell viability [9] [%] | cell viability [10] [%] | cell viability [11] [%] | cell viability [12] [%] | cell viability [13] [%] | cell viability [14] [%] | cell viability [15] [%] | cell viability [16] [%] | cell viability [17] [%] | cell viability [18] [%] | cell viability [19] [%] | cell viability [20] [%] | cell viability [21] [%] | cell viability [22] [%] | cell viability [23] [%] | cell viability [24] [%] | cell viability [25] [%] | cell viability [26] [%] | cell viability [27] [%] | cell viability [28] [%] | cell viability [29] [%] | cell viability [30] [%] | cell viability [31] [%] | cell viability [32] [%] | cell viability [33] [%] |
| --- | --- | --- | --- | --- | --- | --- | --- | --- | --- | --- | --- | --- | --- | --- | --- | --- | --- | --- | --- | --- | --- | --- | --- | --- | --- | --- | --- | --- | --- | --- | --- | --- | --- |
| N[C@@H](Cc1ccc(N(CCCl)CCCl)cc1)C(=O)O | 118 | 124 | 125 | 128 | 126 | 116 | 119 | 103 | 48.6 | 18.3 | 11.8 | 114 | 115 | 120 | 126 | 134 | 123 | 107 | 90.7 | 34.4 | 13.7 | 5.98 |  |  |  |  |  |  |  |  |  |  |  |
| CCOC(=O)c1c(/C(C#N)=C\N)c2ccc(Cl)c(Cl)c2n1C | 85.8 | 86.1 | 85.2 | 96.9 | 76.5 | 94.1 | 95.5 | 81.7 | 92.6 | 83.4 | 57.4 | 80 | 97.7 | 81.8 | 87.8 | 71.6 | 89.3 | 102 | 84.4 | 94.8 | 75.2 | 76.9 | 86.7 | 99.2 | 89.9 | 94.1 | 84.6 | 89.7 | 97.8 | 94.4 | 89.6 | 84 | 62 |
| O=C(O)CCc1ccc(NCc2cccc(Oc3ccccc3)c2)cc1 | 62.4 | 93.7 | 114 | 103 | 112 | 108 | 98.7 | 122 | 121 | 109 | 123 | 71.6 | 106 | 126 | 116 | 109 | 112 | 121 | 115 | 127 | 131 | 128 | 74.2 | 106 | 108 | 90.6 | 124 | 105 | 99.3 | 118 | 110 | 120 | 95.2 |
| C[C@@H](Oc1ccc2[nH]nc(/C=C/c3cnn(CCO)c3)c2c1)c1c(Cl)cncc1Cl | 90.3 | 86.4 | 85.9 | 85.9 | 85.6 | 58.6 | 31.3 | 37.2 | 20 | 14.8 | 30.9 | 82.4 | 84.6 | 82 | 73.5 | 80 | 50.9 | 17.5 | 33.7 | 12.4 | 10.9 | 20.9 | 118 | 136 | 103 | 103 | 108 | 75.5 | 32.7 | 42.8 | 15.6 | 13.8 | 21 |
| NC/1=N/C(=O)C2=C([NH]C=C2CCC3=CC=C(C=C3)C(=O)N[C@@H](CCC(O)=O)C(O)=O)N1 | 118 | 103 | 107 | 115 | 114 | 110 | 80.2 | 45.7 | 39.4 | 38.3 | 35.8 | 98.8 | 95 | 100 | 97.3 | 97 | 107 | 109 | 52.2 | 36.2 | 32.3 | 23.3 | 98.3 | 105 | 103 | 107 | 99.7 | 107 | 91.9 | 100 | 83.2 | 73.9 | 69.8 |
| O=C1C(CCC(O)c2ccc(F)cc2)C(c2ccc(O)cc2)N1c1ccc(F)cc1 (configuration not stated) | 107 | 97.3 | 110 | 112 | 103 | 109 | 108 | 101 | 113 | 102 | 104 | 106 | 113 | 121 | 121 | 128 | 113 | 115 | 121 | 113 | 108 | 108 | 81.4 | 98.2 | 96 | 111 | 92.9 | 100 | 101 | 97.1 | 114 | 98.8 | 101 |
| CCCC[N+]1(C)[C@@H]2CC(OC(=O)[C@H](CO)c3ccccc3)C[C@H]1[C@@H]1O[C@@H]12 (some centres not stated) | 112 | 113 | 120 | 125 | 118 | 126 | 110 | 127 | 109 | 131 | 123 |  |  |  |  |  |  |  |  |  |  |  |  |  |  |  |  |  |  |  |  |  |  |
| CCCCC(F)(F)[C@@]1(O)CC[C@H]2[C@@H](CC(=O)[C@@H]2CCCCCCC(=O)O)O1 | 120 | 124 | 123 | 121 | 112 | 110 | 118 | 116 | 101 | 91.6 | 98.6 |  |  |  |  |  |  |  |  |  |  |  |  |  |  |  |  |  |  |  |  |  |  |
| CON(C)C(=O)N1\N=C(/S[C@]1(CCCN)C2=CC=CC=C2)C3=CC(=CC=C3F)F | 23.7 | 22.9 | 24.5 | 28.8 | 26.4 | 27.4 | 30.7 | 27 | 29.9 | 31.7 | 24.8 | 21.2 | 21.1 | 19.9 | 21 | 21.3 | 23.2 | 23.2 | 24.6 | 23.9 | 20.6 | 21.6 | 20.8 | 20.4 | 20.1 | 22.6 | 22.8 | 21.5 | 25.6 | 18.8 | 21.3 | 20.4 | 23.8 |
